According to patent publication US10239871B2, “Compounds and methods for regulating integrins” (ADHAERE PHARMACEUTICALS, INC., priority 2012, dated 2019):

What was measured:
[1] = tested on: RAW 264.7 macrophage cells; experiment: Wound healing assay (macrophage migration); assay type: cell-based, murine; details: LPS 100 ng/mL or PMA 100 nM vs unstimulated (DMSO), 48 hours
Description: Murine RAW 264.7 macrophage cells were grown in DMEM 10% FBS medium in T75 flasks to 70% confluence. The cells were detached by trypsin treatment for 10 minutes at 37° C. and evenly reseeded in 24 well plates and allowed to attain >70% confluency. A scratch was introduced horizontally across the well using 200 µL tip applying even force throughout the etching and holding the tip at approximately an 80 degree angle. The wells were subsequently washed and fresh medium containing various treatment groups was introduced. The wound was imaged using 10× objective. The cells were allowed to grow for 48 hours and the wound was reimaged at the same field after 48 hours. The average extent of wound closure was evaluated by measuring the width of the wound. The area healed was analyzed using ImageJ software and is expressed as percentage healing after 48 hours.
For FIG. 4B, RAW 264.7 cells were plated in 24-well tissue culture plates (2×10^6 cells/well) and allowed to adhere in complete media for 12 hours. […] Images of the cells in culture were obtained immediately prior to (0 hours) and after the completion of the experiment (48 hours) using an inverted phase contrast microscope attached to a video camera.
Representative data shown here are from a triplicate well experiment from one of at least two to three independent experiments. **p<0.001, ***p<0.0001.

[2] = tested on: Human macrophages; experiment: TNF-α release from human macrophages; assay type: cell-based; details: n=14
[3] = tested on: Cl66 cells; experiment: Orthotopic Cl66 mammary adenocarcinoma tumor growth, with or without Taxol; assay type: in vivo; details: BALB/c mice, vs vehicle
Description: The syngeneic murine mammary adenocarcinoma cell line Cl66 (moderately metastatic and is related to the highly metastatic 4T1 cell line) was orthotopically introduced in Balb/c animals, by injecting ˜5×10^5 Cl66 cells under the left mammary fat pad of WT BALB/c mice (approx. 8-10 weeks old). The tumor size was measured using calipers every other day until the end of the experiment (approx. 5 weeks). 7-days post implantation, the tumors in all animals became palpable, with an average size of ˜100 mm3. At that time, animals in each group were treated as described. LA1 was administered daily for the first two weeks and then every other day until the end of the experiment. Animals in Group 1 received Saline injections, as control. […] It can also enhance the efficacy of traditional chemotherapy in various cancers, including breast cancer, to produce a synergistic response to the treatment. It can also reduce the incidence and the size of metastases.

[4] = tested on: patients; details: cited from earlier work
[5] = tested on: MAPK signaling (pERK, pJNK) in K562 WT cells; experiment: Western blotting of pERK and pJNK in K562 WT cells; assay type: cell-based, human; details: CD11b/CD18 ligation with fibrinogen, all conditions
Description: K562 WT cells were incubated with LA1, LA2, LA15 (15 μM), or fibrinogen (200 μg) in serum-free medium for 1 hour at 37° C. Cell lysates were resolved on 4-12% NuPAGE Bis-Tris SDS-PAGE gels using MES running buffer and transferred to a polyvinylidene difluoride (PVDF) membrane (ThermoScientific) using established protocols. Membranes were incubated with a 1:1,000 dilution of the anti-phospho-protein antibodies (anti phospho-p44/42 MAPK (pERK1/2) antibody (Thr202/Tyr204, Cell Signaling) or anti-phospho-SAPK/JNK (pJNK) antibody (Thr183/Tyr185, Cell Signaling #81E11)), or with an antibody against either total ERK1/2 (p44/42 MARK (Erk1/2), Cell Signaling #137F5) or total JNK (SAPK/JNK, Cell Signaling #56G8) and developed according to the manufacturer's instructions (ThermoScientific). Proteins were quantified by densitometry using ImageJ software. […]
Second, an effect of integrin ligation, macro clustering and redistribution in the plasma membrane is the triggering of outside-in intracellular signaling in cells via various MAPKs. […] In FIGS. 6A-6B, immunoblot results from two independent experiments were quantified using ImageJ software and ratio of phosphorylated protein to total protein was determined. Histograms showing this quantitation for each set are also shown. […] In FIGS. 6C-6D, immunoblot results from two independent experiments were quantified and are also shown, as in 6A and 6B.

[6] = target: CD11b/CD18 (Homo sapiens, UniProt P11215); experiment: Immunofluorescence microscopy of CD11b/CD18 clustering on K562 WT cells; assay type: cell-based; parameters: K562 cells stably transfected with plasmid encoding wild-type integrin CD11b/CD18; expressed in transfected cells; details: presence of fibrinogen 50 μg/mL
Description: To visualize changes upon ligand binding, fibrinogen (50 μg/mL) was also added to the cell suspension media in a second set of incubations. The cells were fixed in suspension and incubated with mAb 184, which is specific for CD11b/CD18, followed by Alexa Fluor 488-conjugated goat antibody against mouse Ig (Sigma). Fluorescence images were recorded with a Leica DMI16000 deconvolution microscope using an HCX APO 40×/0.75 DRY objective with a DCF360FX camera and with Leica LAS-AF software. A 3-dimensional representation of CD11b/CD18 fluorescence intensity and the analysis of the number of CD11b/CD18 clusters per cell was performed using ImageJ software as described. Clustering determination was carried out by counting individual fluorescent peaks that were projected from the basal to the apical side of the cell and were at least 50% above the base line levels. The images presented are representative of at least 20 cells analyzed for each condition from at least three independent experiments.
Therefore, to investigate, a combination of confocal microscopy (to study clustering) and western blotting assays (to study intracellular signaling) using K562 WT cells were used. First, CD11b/CD18 cell-surface distribution and macro clustering was studied under various conditions using confocal microscopy. K562 WT cells in suspension were incubated with various agonists, fixed with paraformaldehyde and the surface expressed CD11b/CD18 was fluorescently stained with anti-CD11b/CD18 mAb 1B4. […] The fluorescence images shown are representative of three independent experiments. […] Also shown below each image is a 3D representation of CD11b fluorescence intensity for selected cells, analyzed in ImageJ In FIG. 5B, data shown are mean±SEM from >40 cells per condition and from >3 independent experiments for each condition. ***p<0.0001, ns=not significant.

CCCCCCCCCCCCCC(=O)O[C@@H]1[C@@H](C)[C@@]2(O)[C@@H](C=C(CO)C[C@]3(O)C(=O)C(C)=C[C@@H]23)[C@@H]2C(C)(C)[C@]12OC(C)=O [PMA, phorbol-12-myristate-13-acetate, reference compound]
migration of macrophages into the wound area upon stimulation [1]: significantly induced the migration of macrophages

CCOCc1nc2c(N)nc3ccccc3c2n1CC(C)(C)O [R848, reference compound]
TNF-α release, stimulus alone vs macrophages alone [2]: significantly stimulated TNF-α release

CC(=O)O[C@H]1C(=O)[C@@]2(C)[C@H]([C@H](OC(=O)c3ccccc3)[C@]3(O)C[C@H](OC(=O)[C@H](O)[C@@H](NC(=O)c4ccccc4)c4ccccc4)C(C)=C1C3(C)C)[C@]1(OC(C)=O)CO[C@@H]1C[C@@H]2O [Taxol, reference compound]
rate of tumor growth, single agent [3]: significant reduction in the rate of tumor growth

CC(=O)O[C@@]12CO[C@@H]1C[C@H](O)[C@@]1(C)C(=O)[C@H](O)C3=C(C)[C@@H](OC(=O)[C@H](O)[C@@H](NC(=O)OC(C)(C)C)c4ccccc4)C[C@@](O)([C@@H](OC(=O)c4ccccc4)[C@H]21)C3(C)C [docetaxel]
incidence rate of bradycardia [4]: 1.7%

fibrinogen [reference compound]
phosphorylated ERK (pERK) and phosphorylated JNK (pJNK) [5]: high levels of both pERK and pJNK
CD11b/CD18 macro clustering on cell surface [6]: significant CD11b/CD18 macro clustering
